Test system: VIH-1/LAI
Assay: Inactivation of HIV-1: infectious titre before/after treatment, titrated on MT4 cells (p24 antigen ELISA, day +10)
Assay type: cell-based
From the text: Afin d'évaluer l'efficacité d'AVF1, il a été procédé à la comparaison des titres infectieux de suspensions virales avant et après traitement par trois concentrations de AVF1 pendant trois temps de contact. A partir des résultats expérimentaux, il a été défini pour chaque concentration et chaque temps de contact testés, un facteur de […] du titre infectieux du VIH-1. Ce facteur de réduction exprimé en log 10 correspond au rapport du titre infectieux du virus non traité et du titre infectieux du virus traité par AVF1.
L'étude a été réalisée en deux étapes : • Traitement du VIH-1/LAI par trois concentrations d'AVF1 pendant 5, 30 et 60 minutes. • Evaluation des titres infectieux des échantillons obtenus avant et après traitement par AVF1 sur cellules MT4.
Le virus a été dilué au 1/10ème dans chacune des solutions de AVF1 (solution diluée à 2%, 1%, et 0,5%).
Le virus a été maintenu dans chacune de ces solutions pendant 5 minutes, 30 minutes et 60 minutes, à température ambiante puis immédiatement dilué en tampon NTE. Après dilution en tampn NTE, les échantillons ont été ultracentrifugés afin d'éliminer AVF1 et éviter ainsi sa toxicité sur les cellules MT4 utilisées pour le titrage du virus. Cette étape d'ultracentrifugation permet aussi de concentrer les particules virales résiduelles. Après centrifugation, chaque culot a été repris dans 1 ml de milieu de culture, filtré sur un filtre de 0,45 µm aliquoté et stocké à -80°C.
La même expérience a été réalisée deux fois.
La méthode de titrage du VIH-1 sur cellules MT4 est basée sur la détection d'une production virale par les cellules inoculées maintenues 10 jours en culture, mesurée par le dosage de l'antigène p24 VIH-1 dans le surnageant de culture.
Brièvement, les cellules MT4 sont inoculées avec des dilutions en série de virus non traité (contrôle positif) ou avec les échantillons expérimentaux (virus traités par AVF1).
Le VIH infecte les cellules, se multiplie, puis est libéré dans le surnageant de culture par bourgeonnement à la surface de la cellule. Afin de détecter la présence du virus, les surnageants de culture sont récupérés tous les 3 ou 4 jours et testés au jour +10 après l'infection quant à la présence de l'antigène p24 VIH-1.
La détection de l'antigène p24 VIH-1 est réalisée à l'aide d'une technique ELISA sandwich mettant en oeuvre la trousse ELAVIA AgI commercialisée par Diagnostic Pasteur, qui permet la détection de 50 pg d'antigène p24 par millilitre de surnageant.
Le principe de cette méthode est brièvement le suivant : l'antigène p24 libéré après la lyse des particules virales présentes dans le surnageant est complexé à des anticorps anti-VIH-1 immobilisés dans les puits des microplaques. L'antigène est alors révélé par anticorps polyclonaux anti-VIH-1 biotinylés, reconnus eux-mêmes par un conjugué streptavidine péroxydase. La présence de ce complexe est révélée par une réaction enzymatique après addition du substrat (H2O2) et du chromogène (OPD). Le produit de cette réaction est coloré et peut donc être détecté par mesure de la densité optique à 492 nm. La quantité de produit formé au cours de la réaction enzymatique est directement proportionnelle à la quantité d'antigène présente dans l'échantillon testé.
Les échantillons à tester ont été dilués ou non dans du milieu de culture. 1 ml d'échantillon non dilué, et 0,4 ml des dilutions suivantes ont été inoculés sur un culot de 1,2 10^6 cellules MT4. Après l'adsoption virale pendant 1 heure à 37°C, l'innoculum viral a été éliminé et les cellules lavées 3 fois en milieu de culture. Les cellules ont alors été resuspendues dans 4 ml de milieu de culture, distribuées dans 4 puits de plaque 24 puits et incubées à 37°C en présence de 5% de CO2.
Tous les 3 ou 4 jours, les surnageants de culture contenus dans chaque puits ont été prélevés et stockés à -80°C puis testés quant à la présence d'antigène p24 VIH-1.
Le titre infectieux est exprimé en "tissue Culture Infectious Dose 50" par millilitre d'échantillon (TCID 50/ml). […]

[1] = AVF1 0,5%, 5 minutes, 1ère expérience
[2] = AVF1 0,5%, 5 minutes, 2ème expérience
[3] = AVF1 0,5%, 30 minutes, 1ère expérience
[4] = AVF1 0,5%, 30 minutes, 2ème expérience
[5] = AVF1 0,5%, 60 minutes, 1ère expérience
[6] = AVF1 0,5%, 60 minutes, 2ème expérience
[7] = AVF1 1%, 5 minutes, 1ère expérience
[8] = AVF1 1%, 5 minutes, 2ème expérience
[9] = AVF1 1%, 30 minutes, 1ère expérience
[10] = AVF1 1%, 30 minutes, 2ème expérience
[11] = AVF1 1%, 60 minutes, 1ère expérience
[12] = AVF1 1%, 60 minutes, 2ème expérience
[13] = AVF1 2%, 5 minutes, 1ère expérience
[14] = AVF1 2%, 5 minutes, 2ème expérience
[15] = AVF1 2%, 30 minutes, 1ère expérience
[16] = AVF1 2%, 30 minutes, 2ème expérience
[17] = AVF1 2%, 60 minutes, 1ère expérience
[18] = AVF1 2%, 60 minutes, 2ème expérience

In the case of `CC(C)(C)c1cc(C(=O)OCCOCCOCCOCCOCCOCCOCCOCCO)cc(C(C)(C)C)c1O` [AVF1, 3,5-di-t-butyl-4-hydroxybenzoate d'octaoxyéthylèneglycol], the “Facteur de réduction Log TCID50/ml” value [1] is reported as > 6,9 Log TCID50/ml, the “Titre TCID 50/ml” value [1] is reported as less than 4 TCID 50/ml and the “Facteur de réduction Log TCID50/ml” value [2] is reported as > 6,9 Log TCID50/ml. The “Titre TCID 50/ml” value [2] was less than 4 TCID 50/ml, the “Facteur de réduction Log TCID50/ml” value [3] was > 6,9 Log TCID50/ml and the “Titre TCID 50/ml” value [3] was less than 4 TCID 50/ml. For the same compound, the “Facteur de réduction Log TCID50/ml” value [4] was > 6,9 Log TCID50/ml, the “Titre TCID 50/ml” value [4] was less than 4 TCID 50/ml and the “Facteur de réduction Log TCID50/ml” value [5] was > 6,9 Log TCID50/ml. For the same compound, the “Titre TCID 50/ml” value [5] was less than 4 TCID 50/ml, the “Facteur de réduction Log TCID50/ml” value [6] was > 6,9 Log TCID50/ml and the “Titre TCID 50/ml” value [6] was less than 4 TCID 50/ml. The “Facteur de réduction Log TCID50/ml” value [7] was > 6,9 Log TCID50/ml, the “Titre TCID 50/ml” value [7] was less than 4 TCID 50/ml and the “Facteur de réduction Log TCID50/ml” value [8] was > 6,9 Log TCID50/ml. For the same compound, the “Titre TCID 50/ml” value [8] was less than 4 TCID 50/ml, the “Facteur de réduction Log TCID50/ml” value [9] was > 6,9 Log TCID50/ml and the “Titre TCID 50/ml” value [9] was less than 4 TCID 50/ml. For the same compound, the “Facteur de réduction Log TCID50/ml” value [10] was > 6,9 Log TCID50/ml, the “Titre TCID 50/ml” value [10] was less than 4 TCID 50/ml and the “Facteur de réduction Log TCID50/ml” value [11] was > 6,9 Log TCID50/ml. For the same compound, the “Titre TCID 50/ml” value [11] was less than 4 TCID 50/ml, the “Facteur de réduction Log TCID50/ml” value [12] was > 6,9 Log TCID50/ml and the “Titre TCID 50/ml” value [12] was less than 4 TCID 50/ml. The “Facteur de réduction Log TCID50/ml” value [13] was > 6,9 Log TCID50/ml, the “Titre TCID 50/ml” value [13] was less than 4 TCID 50/ml and the “Facteur de réduction Log TCID50/ml” value [14] was > 6,9 Log TCID50/ml. The “Titre TCID 50/ml” value [14] was less than 4 TCID 50/ml, the “Facteur de réduction Log TCID50/ml” value [15] was > 6,9 Log TCID50/ml and the “Titre TCID 50/ml” value [15] was less than 4 TCID 50/ml. For the same compound, the “Facteur de réduction Log TCID50/ml” value [16] was > 6,9 Log TCID50/ml, the “Titre TCID 50/ml” value [16] was less than 4 TCID 50/ml and the “Facteur de réduction Log TCID50/ml” value [17] was > 6,9 Log TCID50/ml. For the same compound, the “Titre TCID 50/ml” value [17] was less than 4 TCID 50/ml, the “Facteur de réduction Log TCID50/ml” value [18] was > 6,9 Log TCID50/ml and the “Titre TCID 50/ml” value [18] was less than 4 TCID 50/ml. The “réduction du pouvoir infectieux” value (solution à 0,5% de AVF1, 5 minutes) was ≥ 6,9 log TCID50/ml and the “particules infectieuses VIH-1 détectées” value (whatever the concentration (2%, 1%, 0,5%) and contact time (5, 30, 60 minutes)) was “Aucune particule infectieuse VIH-1 n'a été détectée”.

Reference: patent EP0804408B1, “NOVEL 4-SUBSTITUTED 2,6-DI-TERT-BUTYLPHENOL COMPOUNDS, PHARMACEUTICAL COMPOSITIONS CONTAINING SAME AND PREPARATION METHOD THEREFOR” (priority 1994, dated 1996)
